Data set [1] in a line: In vitro cytotoxicity assay (resazurin). It is filed as cell-based. The note with it: human, HeLa cells; 20 μM compound; 48 h exposure, 24 h. The method, then: HeLa cells (Cellonex, Johannesburg, South Africa) seeded in 96-well plates were incubated with 20 μM test compounds for 24 h and cell viability assessed using a resazurin fluorescence assay as previously described.

The test system of data set [2] is Trypanosoma brucei brucei 427 trypomastigotes. Briefly: In vitro antitrypanosomal assay (resazurin viability). Conditions: T. b. brucei 427, 24 h incubation. It is filed as cell-based. The method, then: Trypanosoma brucei brucei 427 trypomastigotes were cultured in Iscove’sss Modified Dulbecco’s medium (IMDM, Lonza, Basel Switzerland) supplemented with 10% fetal calf serum, HMI-9 supplement, hypoxanthine, and penicillin/streptomycin at 37 °C in a 5% CO2 incubator. […] Reduction of resazurin to resorufin by viable parasites was assessed by fluorescence readings (excitation 560 nm, emission 590 nm) in a Spectramax M3 plate reader (Molecular Devices, San Jose, CA, USA). Fluorescence readings were converted to % parasite viability relative to the average readings obtained from untreated control wells. IC50 values were determined by plotting % viability vs. log[compound] and performing non-linear regression using GraphPad Prism (v. 5.02) software.
For orientation: The colour change of resazurin is a common sign of viable cells or microbes.

The test system of data set [3] is Trichomonas vaginalis G3 strain. Briefly: In vitro antitrichomonal assay (hemocytometer counts). It is filed as cell-based. Conditions: 24 h, read-out: IC50 T. vaginalis.
The test system of data set [4] is Mycobacterium tuberculosis H37Rv. The experiment in a line: In vitro antimycobacterial broth microdilution assay. It is filed as cell-based. Conditions: concentration inhibiting mycobacterial growth by 99%. On the technique in general: Broth dilution looks for growth in wells or tubes with falling amounts of substance.
In another data set the test system is Dd2. Details: method as in PMID 11310613. Conditions: Figure 2; cited from earlier work.
For data set [5], the system named is Trypanosoma brucei brucei 427 trypomastigotes. Conditions: cited from earlier work.

Results on 14 compounds are retold here after paper PMC6222898, “Cinnamoyl-Oxaborole Amides: Synthesis and Their in Vitro Biological Activity” (Molecules : A Journal of Synthetic Chemistry and Natural …, 2018).

Converted amounts (≈) assume the structure as drawn. Where two headings read alike, the source gives them in different places. Where only a bound is given, the exact number is not on record here.

By viability is commonly meant a read-out of living cells in per cent, often relative to untreated cells. As for `CC[C@H]1CN2CCc3cc(OC)c(OC)cc3[C@@H]2C[C@@H]1C[C@H]1NCCc2cc(OC)c(OC)cc21` [EM, emetine, reference compound], the viability at 48 h, 20 µM in data set [1] was 3.19%.
Usually IC50 stands for the point on the concentration scale where inhibition reaches its midpoint. In general, MIC99 refers to the lowest concentration that inhibits either 99% of growth or 99% of the strains tested, depending on the study. Usually melting point stands for the temperature of the solid-liquid transition. For `O=C(/C=C/c1ccc(Br)cc1)Nc1ccc2c(c1)B(O)OC2` [Compound 5d, (E)-3-(4-Bromophenyl)-N-(1-hydroxy-1,3-dihydrobenzo[c][1,2]oxaborol-6-yl)acrylamide], the melting point lay within 206 to 210 °C. The compound further had an IC50 in data set [2] of 470 ± 40 nM. Further, the viability at 48 h, 20 µM in data set [1] was 89.9 ± 5.12%. Moreover, in data set [3], the IC50 was determined as 12600 ± 280 nM. In data set [4], the MIC99 came out at 10.7 µM (≈ 3.83 µg/mL).
In turn, `CO[C@H]1/C=C/O[C@@]2(C)Oc3c(C)c(O)c4c(O)c(c(/C=N/N5CCN(C)CC5)c(O)c4c3C2=O)NC(=O)/C(C)=C\C=C\[C@H](C)[C@H](O)[C@@H](C)[C@@H](O)[C@@H](C)[C@H](OC(C)=O)[C@@H]1C` [RE, rifampicin, reference compound] gave an MIC99 in data set [4] of 0.003 µM (≈ 0.00247 µg/mL).
With `Cc1ccc(CC(=O)Nc2ccc(NC(=O)/C=C/c3ccc(OCc4ccccc4)cc3)cc2C(=O)c2ccccc2)cc1` [Compound 4, 2,5-bisacylaminobenzonephone], in the data set on Dd2, the IC50 is 650 nM.
On to `CC1(C)OB(O)c2cc(NC(=O)c3ccc(F)cc3C(F)(F)F)ccc21` [Compound 1, SCYX-7158], for which, in data set [5] (T. b. brucei, footnote a: IC50 in μg/mL), the IC50 antitrypanosomal was 0.292 ± 0.019 ^a μg/mL.
As for `O=C(/C=C/c1ccc2c(c1)OCO2)Nc1ccc2c(c1)B(O)OC2` [Compound 5g, (E)-3-(Benzo[d][1,3]-6-dioxol-5-yl)-N-(1-hydroxy-1,3-dihydrobenzo[c][1,2]oxaborol-6-yl)acrylamide], the melting point fell in the range of 145 to 148 °C. For the same compound, inhibition in data set [2] was half-maximal at 86 ± 2 nM (IC50). The viability at 48 h, 20 µM in data set [1] is 132 ± 26.6%. In data set [3], the IC50 was determined as 22800 ± 1020 nM. The compound further registered an MIC99 in data set [4] of 40.7 µM (≈ 13.2 µg/mL).
Consider `O=C(CCc1ccccc1)Nc1ccc2c(c1)B(O)OC2` [Compound 2], for which the IC50 antitrypanosomal in data set [5] (T. b. brucei S427, footnote b: IC50 in μg/mL) is on record as 0.14 ^b μg/mL.
Regarding `Cc1ncc([N+](=O)[O-])n1CCO` [ME, metronidazole, reference compound], in data set [3], the half-inhibitory concentration (IC50) is 530 nM.
Compound `O=C(/C=C/c1ccccc1)Nc1ccc2c(c1)B(O)OC2` [Compound 5a, (E)-N-(1-Hydroxy-1,3-dihydrobenzo[c][1,2]oxaborol-6-yl)cinnamamide] yielded a melting point of 182 to 184 °C. Also, the midpoint of inhibition in data set [2], the IC50, lay at 130 ± 20 nM. Besides, the viability at 48 h, 20 µM in data set [1] came out at 108 ± 5.35%. In addition, the IC50 in data set [3] is 15300 ± 330 nM. This compound returned an MIC99 in data set [4] of 61.8 µM (≈ 17.2 µg/mL).
Taken in the same sequence, the figures for `O=C(/C=C/c1cccc([N+](=O)[O-])c1)Nc1ccc2c(c1)B(O)OC2` [Compound 5b, (E)-N-(1-Hydroxy-1,3-dihydrobenzo[c][1,2]oxaborol-6-yl)-3-(3-nitrophenyl)acrylamide] were 176 to 178 °C, 130 ± 10 nM, 87 ± 1.59%, 41700 ± 230 nM and 107 µM (≈ 34.7 µg/mL).
Taken in the same sequence, the figures for `COc1ccc(/C=C/C(=O)Nc2ccc3c(c2)B(O)OC3)cc1` [Compound 5e, (E)-N-(1-Hydroxy-1,3-dihydrobenzo[c][1,2]oxaborol-6-yl)-3-(4-methoxyphenyl)acrylamide] were 190 to 192 °C, 660 ± 30 nM, 102 ± 2.34%, 11700 ± 280 nM and 18.7 µM (≈ 5.78 µg/mL).
`O=C(/C=C/c1ccc([N+](=O)[O-])cc1)Nc1ccc2c(c1)B(O)OC2` [Compound 5c, (E)-N-(1-Hydroxy-1,3-dihydrobenzo[c][1,2]oxaborol-6-yl)-3-(4-nitrophenyl)acrylamide] came in with a melting point of 176 to 180 °C. This compound also came in with an IC50 in data set [2] of 920 ± 40 nM. Moreover, in data set [1], the viability at 48 h, 20 µM is 94.3 ± 28.8%. Moreover, the IC50 in data set [3] worked out at 10200 ± 560 nM. In data set [4], the MIC99 is 26.5 µM (≈ 8.59 µg/mL).
The compound `COc1ccc(/C=C/C(=O)Nc2ccc3c(c2)B(O)OC3)cc1OC` [Compound 5f, (E)-3-(3,4-Dimethoxyphenyl)-N-(1-hydroxy-1,3-dihydrobenzo[c][1,2]oxaborol-6-yl)acrylamide] came in with a melting point of 188 to 190 °C. For the same compound, in data set [2], the midpoint of inhibition, the IC50, lay at 8710 ± 650 nM. The viability at 48 h, 20 µM in data set [1] came out at 109.9 ± 0.84%. The IC50 in data set [3] was over 50000 nM.
For `N=C(N)c1ccc(OCCCCCOc2ccc(C(=N)N)cc2)cc1` [PE, pentamidine, reference compound], the IC50 in data set [2] was determined as 1.2 ± 0.1 nM.
